Active and inactive are the calls of the source. The calls are words filed in the database; no cut-off is given here.
Experiments:
CHO [1] = assay: Binding affinity at intracellular DsRed2-tagged GABA B receptor expressed in CHO cells at 1 uM by fluorescence confocal microscopy based photoaffinity labeling; assay type: cell-based
CHO [2] = assay: Binding affinity at cell surface GABA B receptor expressed in CHO cells at 1 uM before 15 mins of UV irradiation by […] microscopy based photoaffinity labeling
CHO [3] = assay: Displacement of CGP-64213 from GABA B1-ASA receptor mutant expressed in CHO cells at 1 uM; assay type: cell-based
CHO [4] = assay: Binding affinity at intracellular GABA B receptor expressed in CHO cells at 1uM before 15 mins of UV irradiation by […] microscopy based photoaffinity labeling; assay type: cell-based
[5] = Antagonist activity at GABA B receptor expressed in HEK293 cells assessed as inhibition of GABA-induced IP production after 15 mins; assay type: functional, cell-based; conditions: HEK293, 0.25 h
CHO [6] = assay: Increase in labeling efficiency in CHO cells expressing GABA B1-ASA receptor mutant after UV irradiation; assay type: cell-based
HEK293 = assay: Antagonist activity at GABA B receptor expressed in HEK293 cells assessed as inhibition of GABA-induced IP production at 10 uM after 15 mins; assay type: functional, cell-based

**Q.** With `CC1=CC(C)=[N+]2C1=C(CCCC(=O)NCc1cn(CC(=O)NCCOCCOCCOc3cc(C4(C(F)(F)F)N=N4)ccc3C(=O)NCCCCCP(=O)(O)C[C@@H](O)CN[C@H](C)c3cccc(C(=O)O)c3)nn1)c1c(C)cc(C)n1[B-]2(F)F` as the molecule, how does the Activity (CHO [1]) read?
**A.** Its Activity is “inactive”.

**Q.** What about the Activity (CHO [2]) of the same molecule?
**A.** The Activity was “Active”.

**Q.** What about the Activity (CHO [3]) of the same molecule?
**A.** The Activity was “Active”.

**Q.** What about the Activity (CHO [4]) of the same molecule?
**A.** The Activity was “inactive”.

**Q.** What about the IC50 [5] of the same molecule?
**A.** Its IC50 is 1030 nM.

**Q.** And the Activity (CHO [6])?
**A.** The Activity was “Active”.

**Q.** With `CC1=CC(C)=[N+]2C1=C(CCCC(=O)NCCOCCOCCOc1cc(C3(C(F)(F)F)N=N3)ccc1CO)c1c(C)cc(C)n1[B-]2(F)F` as the molecule, how does the Activity (HEK293) read?
**A.** The Activity was “inactive”.

**Q.** What about the Activity (CHO [3]) of the same molecule?
**A.** The Activity was “inactive”.

From ChEMBL document CHEMBL1150319, “Activity-based probe for specific photoaffinity labeling gamma-aminobutyric acid B (GABAB) receptors on living cells: design, synthesis, and biological evaluation” (J Med Chem, 2008)
